# pEC50: −log10 of the molar value. Counter-ions that a name gives are not always drawn. Like-named read-outs stand apart in the source and are kept apart here.
# What was measured:
# [1] = molecular target: T1, Aβ(1-40) fibrils / biotinyl-Aβ(1-40) (Homo sapiens, UniProt P05067); assay: Microplate Aβ(1-40) elongation screening assay, LOPAC library; type: biochemical; conditions: for Initial stimulation observed: original LOPAC screen, deposition of biotinyl-Aβ(1-40) on immobilized fibrils
# T1 construct: purchased Keck Biotechnology Center at Yale University
# Method: Microtiterplate Elongation and Screening Assays. The Aβ(1-40) microplate elongation assay has been described (12). For screening the compound library, plates were coated with 100 ng Aβ(1-40) fibrils and washed. The assay was initiated by adding to each well, in order, 80 μl assay buffer [PBSA (phosphate-buffered saline containing 0.05% (w/v) sodium azide) containing 0.05% Tween 20], 10 μl of a 1 mM solution of test compound in DMSO, and 10 μl 100 nM biotinyl-Aβ in assay buffer. Plates were incubated 30 mins at 37° C., then washed and the signal developed as described using a streptavidin-europium linked fluorescence assay (12, 13). Each microplate collection of compounds was assayed in triplicate, and results reported as % inhibition compared to control wells lacking test compounds.
# We screened a small library of 640 compounds, the LOPAC library (Sigma), using a microplate-based Aβ elongation assay. In this assay, plastic wells containing immobilized fibrils are incubated with a biotin-tagged monomer in the presence or absence of potential modifiers (13, 18). We found a number of compounds with potent abilities to enhance deposition of the biotin-tagged Aβ(1-40) (FIG. 1). Seven of the compounds were selected for further analysis:—amiloride HCl, phenamil methane sulfonate, naftopidil dihydrochloride, NPC 15437 dihydrochloride, calmidazolium chloride (R24571), 5-(nonoxyl)-tryptamine hydrogen oxalate, and L-α-methyl DOPA. The compounds have a wide variety of structures and biochemical properties. The structures of these seven compounds are shown in FIG. 9, along with the percent stimulation observed in the experiments.
# We characterized the activity of CLC in the microplate assay in more detail.
# Aβ = molecular target: T2, Aβ (Homo sapiens, UniProt P05067); assay: Secondary screening: aggregate formation in the absence of seeding Aβ amyloid fibrils; type: biochemical
# T2 construct: purchased Keck Biotechnology Center at Yale University
# From the text: Four compounds—calmidazolium chloride, NPC 15437, phenamil methane sulfonate, and amiloride HCl were chosen for secondary screening, e.g., assaying for formation of stabilized Aβ protofibrillar aggregates in the absence of seeding Aβ amyloid fibrils. All four compounds to be retested were purchased from Sigma.
# Aβ (1-42) = molecular target: T3, Aβ (1-42) (Homo sapiens, UniProt P05067); conditions: cited from earlier work
# T3 construct: polymeric sheet intermediates using Aβ (1-42) and a compound Ro 90-7501
# Aβ(1-40) = molecular target: T4, Aβ(1-40) (Homo sapiens, UniProt P05067); assay: Solution phase aggregation assay (ThT fluorescence, HPLC of centrifugation supernatants); type: biochemical
# T4 construct: purchased Keck Biotechnology Center at Yale University
# Method: Aβ(1-40) peptides were disaggregated just prior to use, as described previously (12, 14). Peptides (50 μM in fibril formation reactions, approximately 30 μM in CLC aggregation reactions) were incubated in […] at 37° C. Reaction progress was followed by ThT fluorescence and/or quantitative HPLC on centrifugation (30 mins, 315,000×g) supernatants of reaction aliquots (12, 15). The Cr value is the concentration of Aβ in solution when this value stops changing with time. For amyloid fibril growth, this value represents a position of dynamic equilibrium and is the reciprocal of the growth equilibrium constant for the amyloid fibrils (15); for the CLC-induced aggregation, the value is a more qualitative measure of the stability of the Aβ-CLC aggregates. Samples of aggregates were stored at −80° C. after snap-freezing of washed pellets. Reactions with CLC contained 10% DMSO from the CLC stock solution.
# To confirm the microtiter plate assay, we carried out solution phase experiments using unlabelled Aβ(1-40). […] During the ThT lag phase, the amount of soluble, monomeric Aβ is reduced by about a factor of two, consistent with the formation of protofibrillar structures with low ThT response (2). In contrast, in the presence of 100 μM CLC, Aβ(1-40) is rapidly converted to a pelletable aggregate, so that within 1-2 hrs only 2-3 μM Aβ remains in solution after centrifugation (FIG. 3a,b); when these aggregates are isolated by sedimentation, they are found to contain a ratio of 4 moles of CLC per mole of Aβ(1-40) (results of independent analyses against both HPLC and MS standard curves). The significance of this ratio is not clear.
# [2] = molecular target: CLC-Aβ(1-40) aggregates (stabilized Aβ protofibrillar aggregates made with calmidazolium chloride); assay: solution phase aggregation with 100 µM CLC; HPLC of centrifugation supernatants
# [3] = stimulation of Aβ deposition, microplate assay, read-out: EC50
# T1 sequence (P05067 672-711): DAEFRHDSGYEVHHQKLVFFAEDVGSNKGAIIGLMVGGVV
# T2 sequence (P05067 672-711 limits assumed): as the sequence (P05067 672-711) above
# T4 sequence (P05067 672-711): as above
# T3 sequence (P05067 672-713): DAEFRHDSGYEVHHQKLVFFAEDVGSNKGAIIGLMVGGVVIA
Molecule,Initial stimulation observed [1] [%],"pEC50 [1, 3]",Activity in enhancing aggregate formation (Aβ),also measured
C[C@](N)(Cc1ccc(O)c(O)c1)C(=O)O [L-α-methyl DOPA],127,≤ 4.47,–,–
CCCCCCCCCOc1ccc2[nH]cc(CCN)c2c1.O=C(O)C(=O)O [5-(nonyloxy)-tryptamine hydrogen oxalate],136,–,–,pEC50 [1]: ≤ 4.52
"NC(=Nc1ccccc1)NC(=O)c1nc(Cl)c(N)nc1N [Phenamil methane sulfonate, phenamil methane sulfonate]",242,≤ 4.45,sub-optimal activity,–
Nc1ccc(-c2nc3ccc(-c4nc5ccc(N)cc5[nH]4)cc3[nH]2)cc1 [Ro 90-7501],–,–,–,Effect on formation of mature fibrils (Aβ (1-42)): retarded but did not block formation of mature fibrils
"COc1ccccc1N1CCN(CC(O)COc2cccc3ccccc23)CC1 (stereo not shown) [Naftopidil dihydrochloride, naftopidil dihydrochloride]",150,≤ 4.44,–,–
CCCCCCCCCCCCC(=O)N1CCCCC1CNC(=O)C(N)CCCCN (stereo not shown) [NPC15437],149,< 4.57,sub-optimal activity,–
"Clc1ccc(C(c2ccc(Cl)cc2)n2cc[n+](CC(OCc3ccc(Cl)cc3Cl)c3ccc(Cl)cc3Cl)c2)cc1 (stereo not shown) [Calmidazolium chloride, calmidazolium chloride]",598,≤ 4.67,potent stabilizing compound,"Stimulation of Aβ deposition compared to the elongation reaction in the absence of added compound ([1]; at 100 μM): about six; Concentrations at which deposition is stimulated (dose response) ([1]; deposition of 10 nM Aβ): 10 to 100 µM; ThT signal relative to the same weight of mature amyloid fibrils (Aβ(1-40); 100 μM CLC, after 14 days): about 20%; Aβ remaining in solution after centrifugation (Aβ(1-40); 100 μM CLC, within 1-2 hrs): 2 to 3 µM"
"WT Aβ(1-40): wild type Aβ(1-40) peptide, SEQ ID NO:1",–,–,–,"Cr value, protofibril formation (Aβ(1-40); CLC-induced aggregation): 1.6 µM; Cr value, fibril formation (Aβ(1-40); amyloid fibril growth): 0.8 µM"
"P4: tetra-substituted Aβ(1-40) mutant with prolines at positions 9, 23, 30 and 37, SEQ ID NO:34 (DAEFRHDSPYEVHHQKLVFFAEPVGSNKGPIIGLMVPGVV; Amyloid-beta protein 40; UniProt P05067 672-711, looked up, variant G9P D23P A30P G37P)",–,–,–,"Stability of amyloid fibrils (Aβ(1-40); scanning proline mutagenesis): same stability as wild type Aβ(1-40); Stability of CLC aggregates (Aβ(1-40); scanning proline mutagenesis, 100 μM CLC): significantly destabilized compared to WT"
"wild type Aβ(1-40) (disaggregated, monomeric) (peptide)",–,–,–,Cr (concentration of Aβ in solution when it stops changing with time) [2]: 1.6 µM
"N=C(N)NC(=O)c1nc(Cl)c(N)nc1N [Amiloride HCl, amiloride HCl]",96,≤ 4.41,sub-optimal activity,–
